# ChEMBL document CHEMBL1201862, “PubChem BioAssay data set” (2004)
# Values joined by “and” are separate entries in the source; they are usually repeats but may differ in a detail not shown here. Identical values can stand only once.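 Growth conditions: 96-well plates. Treatment: test compound, 48 hours, 5 concentrations. Analysis: linear interpolation between bracketing concentrations; unreached endpoints set to highest concentration. GI50 is the concentration that inhibits growth by half.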 Active and inactive are the calls of the source. Cut-off read from the data, not from the text of the source: active = GI50 up to about 1.1 µM and inactive = higher.
# Key:
# Test in all cases: inhibition of tumour cell growth, NCI panel, 48 h
# UO-31 = system: UO-31
# SNB-75 = system: SNB-75
# IGROV-1 = system: IGROV-1
# MDA-MB-231 = system: MDA-MB-231
# SF-295 = system: SF-295
# HOP-62 = system: HOP-62
# MDA-N = system: MDA-N
# SK-OV-3 = system: SK-OV-3
# NCI-H23 = system: NCI-H23
# HCC 2998 = system: HCC 2998
# MCF7 = system: MCF7
# SK-MEL-5 = system: SK-MEL-5
# SF-268 = system: SF-268
# UACC-62 = system: UACC-62
# COLO 205 = system: COLO 205
# CAKI-1 = system: CAKI-1
# Hs-578T = system: Hs-578T
# EKVX = system: EKVX
# OVCAR-3 = system: OVCAR-3
# TK-10 = system: TK-10
# ACHN = system: ACHN
# NCI-H522 = system: NCI-H522
# M14 = system: M14
# Malme-3M = system: Malme-3M
# LOX IMVI = system: LOX IMVI
# HCT-116 = system: HCT-116
# UACC-257 = system: UACC-257
# PC-3 = system: PC-3
# DU-145 = system: DU-145
# SNB-19 = system: SNB-19
# BT-549 = system: BT-549
# HCT-15 = system: HCT-15
# NCI-H226 = system: NCI-H226
# SF-539 = system: SF-539
# NCI-H460 = system: NCI-H460
# NCI/ADR-RES = system: NCI/ADR-RES
# OVCAR-5 = system: OVCAR-5
# 786-0 = system: 786-0
# RXF 393 = system: RXF 393
# A549 = system: A549
# KM12 = system: KM12
# SN12C = system: SN12C
# OVCAR-8 = system: OVCAR-8
# MDA-MB-435 = system: MDA-MB-435
# T47D = system: T47D
# U-251 = system: U-251
# A498 = system: A498
# HT-29 = system: HT-29
# MOLT-4 = system: MOLT-4
# HOP-92 = system: HOP-92
# SK-MEL-28 = system: SK-MEL-28
# OVCAR-4 = system: OVCAR-4
# SK-MEL-2 = system: SK-MEL-2
# SW-620 = system: SW-620
# HL-60 = system: HL-60
# SR = system: SR
# K562 = system: K562
# RPMI-8226 = system: RPMI-8226
# CCRF-CEM = system: CCRF-CEM
structure (smiles),measurement,setting,value
CNC(=S)N/N=C(C)\C(=N/NC(=S)NC)c1ccccc1,GI50,UO-31,30.7 µM (inactive)
same,GI50,SNB-75,69.8 µM (inactive)
same,GI50,IGROV-1,27.8 µM (inactive)
same,GI50,MDA-MB-231,> 100 µM (inactive)
same,GI50,SF-295,34.4 µM (inactive)
same,GI50,HOP-62,> 100 µM (inactive)
same,GI50,MDA-N,89.7 µM (inactive)
same,GI50,SK-OV-3,> 100 µM (inactive)
same,GI50,NCI-H23,> 100 µM (inactive)
same,GI50,HCC 2998,> 100 µM (inactive)
same,GI50,MCF7,82.8 µM (inactive)
same,GI50,SK-MEL-5,42.3 µM (inactive)
same,GI50,SF-268,74.8 µM (inactive)
same,GI50,UACC-62,> 100 µM (inactive)
same,GI50,COLO 205,55.5 µM (inactive)
same,GI50,CAKI-1,96.6 µM (inactive)
same,GI50,Hs-578T,17.8 µM (inactive)
same,GI50,EKVX,38 µM (inactive)
same,GI50,OVCAR-3,86.9 µM (inactive)
same,GI50,TK-10,> 100 µM (inactive)
same,GI50,ACHN,19.9 µM (inactive)
same,GI50,NCI-H522,28.9 µM (inactive)
same,GI50,M14,61.4 µM (inactive)
same,GI50,Malme-3M,76.7 µM (inactive)
same,GI50,LOX IMVI,42.1 µM (inactive)
same,GI50,HCT-116,31.6 µM (inactive)
same,GI50,UACC-257,> 100 µM (inactive)
same,GI50,PC-3,30.9 µM (inactive)
same,GI50,DU-145,> 100 µM (inactive)
same,GI50,SNB-19,70.3 µM (inactive)
same,GI50,BT-549,> 100 µM (inactive)
same,GI50,HCT-15,53.1 µM
same,GI50,NCI-H226,63.7 µM (inactive)
same,GI50,SF-539,> 100 µM (inactive)
same,GI50,NCI-H460,25.7 µM (inactive)
same,GI50,NCI/ADR-RES,39.3 µM (inactive)
same,GI50,OVCAR-5,> 100 µM (inactive)
same,GI50,786-0,50 µM (inactive)
same,GI50,RXF 393,56.8 µM (inactive)
same,GI50,A549,29.2 µM (inactive)
same,GI50,KM12,64.9 µM (inactive)
NC(=O)C(=Cn1c(=S)[nH]c2ccc([N+](=O)[O-])cc21)C(N)=O,GI50,UO-31,> 100 µM (inactive)
same,GI50,SNB-75,97.9 µM (inactive)
same,GI50,IGROV-1,> 100 µM (inactive)
same,GI50,SN12C,> 100 µM (inactive)
same,GI50,MDA-MB-231,> 100 µM (inactive)
same,GI50,SF-295,> 100 µM (inactive)
same,GI50,HOP-62,> 100 µM (inactive)
same,GI50,MDA-N,> 100 µM (inactive)
same,GI50,SK-OV-3,> 100 µM (inactive)
same,GI50,NCI-H23,> 100 µM (inactive)
same,GI50,OVCAR-8,> 100 µM (inactive)
same,GI50,HCC 2998,> 100 µM (inactive)
same,GI50,SK-MEL-5,> 100 µM (inactive)
same,GI50,MDA-MB-435,> 100 µM (inactive)
same,GI50,SF-268,> 100 µM (inactive)
same,GI50,UACC-62,> 100 µM (inactive)
same,GI50,COLO 205,> 100 µM (inactive)
same,GI50,CAKI-1,> 100 µM (inactive)
same,GI50,EKVX,19.7 µM (inactive)
same,GI50,T47D,> 100 µM (inactive)
same,GI50,OVCAR-3,> 100 µM (inactive)
same,GI50,U-251,> 100 µM (inactive)
same,GI50,TK-10,> 100 µM (inactive)
same,GI50,ACHN,> 100 µM (inactive)
same,GI50,M14,> 100 µM (inactive)
same,GI50,LOX IMVI,> 100 µM (inactive)
same,GI50,HCT-116,> 100 µM (inactive)
same,GI50,A498,> 100 µM (inactive)
same,GI50,UACC-257,> 100 µM (inactive)
same,GI50,DU-145,> 100 µM (inactive)
same,GI50,HT-29,> 100 µM (inactive)
same,GI50,MOLT-4,> 100 µM (inactive)
same,GI50,SNB-19,> 100 µM (inactive)
same,GI50,BT-549,> 100 µM (inactive)
same,GI50,HCT-15,> 100 µM
same,GI50,NCI-H226,28.8 µM (inactive)
same,GI50,SF-539,> 100 µM (inactive)
same,GI50,HOP-92,> 100 µM (inactive)
same,GI50,NCI-H460,> 100 µM (inactive)
same,GI50,NCI/ADR-RES,> 100 µM (inactive)
same,GI50,SK-MEL-28,> 100 µM (inactive)
same,GI50,OVCAR-4,> 100 µM (inactive)
same,GI50,SK-MEL-2,> 100 µM (inactive)
same,GI50,SW-620,> 100 µM (inactive)
same,GI50,OVCAR-5,> 100 µM (inactive)
same,GI50,786-0,> 100 µM (inactive)
same,GI50,RXF 393,> 100 µM (inactive)
same,GI50,HL-60,> 100 µM (inactive)
same,GI50,A549,> 100 µM (inactive)
same,GI50,KM12,> 100 µM (inactive)
Cc1ccc(OCC2OC(n3cnc4c(Cl)ncnc43)CC2Oc2ccc(C)cc2)cc1 (centres undefined),GI50,SNB-75,26.1 µM (inactive) and 15.8 µM (inactive)
same,GI50,MDA-MB-231,9.51 µM (inactive) and 5.35 µM (inactive)
same,GI50,SF-295,20 µM (inactive) and 14.9 µM (inactive)
same,GI50,SR,2.66 µM (inactive) and 3.29 µM (inactive)
same,GI50,SK-OV-3,29.8 µM (inactive) and 20 µM (inactive)
same,GI50,OVCAR-8,8.93 µM (inactive) and 8.3 µM (inactive)
same,GI50,K562,4.92 µM (inactive) and 2.99 µM (inactive)
same,GI50,SK-MEL-5,15.4 µM (inactive) and 18.7 µM (inactive)
same,GI50,SF-268,7.91 µM (inactive) and 4.74 µM (inactive)
same,GI50,CAKI-1,2.21 µM (inactive) and 1.94 µM (inactive)
same,GI50,Hs-578T,6.84 µM (inactive) and 4.7 µM (inactive)
same,GI50,EKVX,3.06 µM (inactive) and 2.84 µM (inactive)
same,GI50,U-251,1.97 µM (inactive) and 2.55 µM (inactive)
same,GI50,TK-10,30.5 µM (inactive) and 45 µM (inactive)
same,GI50,NCI-H522,2.27 µM (inactive) and 1.71 µM (inactive)
same,GI50,RPMI-8226,2.69 µM (inactive) and 5.31 µM (inactive)
same,GI50,CCRF-CEM,4.78 µM (inactive) and 5.09 µM (inactive)
same,GI50,MOLT-4,2.48 µM (inactive) and 2.49 µM (inactive)
same,GI50,BT-549,20.2 µM (inactive) and 18.5 µM (inactive)
same,GI50,NCI-H226,11.9 µM (inactive) and 20.8 µM (inactive)
same,GI50,SF-539,22.9 µM (inactive) and 15.8 µM (inactive)
same,GI50,NCI/ADR-RES,12.4 µM (inactive) and 19.2 µM (inactive)
same,GI50,SK-MEL-28,1.71 µM (inactive) and 2.13 µM (inactive)
same,GI50,SK-MEL-2,12.4 µM (inactive) and 17.3 µM (inactive)
same,GI50,SW-620,2.07 µM (inactive) and 3.43 µM (inactive)
same,GI50,OVCAR-5,26.4 µM (inactive) and 24.9 µM (inactive)
same,GI50,786-0,31.8 µM (inactive) and 17.4 µM (inactive)
same,GI50,HL-60,2.29 µM (inactive) and 1.72 µM (inactive)
